# Source: patent US7138361B2, “Herbicidal heterocycles” (E. I. du Pont de Nemours and Company, priority 2000, dated 2006)
# What was measured:
# Format in all cases: in vivo
# [1] = tested on: lambsquarters (Chenopodium album); assay: Test C postemergence
# From the text: (§1) Seeds of plant species selected from bermudagrass (Cynodon dactylon), Surinam grass (Brachiaria decumbens), cocklebur (Xanthium strumarium), corn (Zea mays), crabgrass (Digitaria sanguinalis), woolly cupgrass (Eriochloa villosa), giant foxtail (Setaria faberii), goosegrass (Eleusine indica), johnsongrass (Sorghum halepense), kochia (Kochia scoparia), lambsquarters (Chenopodium album), morningglory (Ipomoea hederacea), yellow nutsedge (Cyperus esculentus), pigweed (Amaranthus retroflexus), common ragweed (Ambrosia elatior), soybean (Glycine max) and velvetleaf (Abutilon theophrasti) were planted and treated preemergence with test chemicals formulated in a non-phytotoxic solvent mixture which included a surfactant.
# (§2) At the same time, plants selected from these crop and weed species and also winter barley (Hordeum vulgare), blackgrass (Alopecurus myosuroides), canary grass (Phalaris minor), chickweed (Stellaria media), downy brome (Bromus tectorum), green foxtail (Setaria viridis), Italian ryegrass (Lolium multiflorum), wheat (Triticum aestivum), wild oat (Avena fatua) and windgrass (Apera spica-venti) were treated with postemergence applications of some of the test chemicals formulated in the same manner. Plants ranged in height from 2 to 18 cm (1- to 4-leaf stage) for postemergence treatments. Plant species in the flooded paddy test consisted of rice (Oryza saliva), smallflower flatsedge (Cyperus difformis), duck salad (Heteranthera limosa) and barnyardgrass (Echinochloa crus-galli) grown to the 2-leaf stage for testing. Treated plants and controls were maintained in a greenhouse for 12 to 14 days, after which time all species were compared to controls and visually evaluated. Plant response ratings, summarized in Table C, are based on a scale of 0 to 100 where 0 is no effect and 100 is complete control. A dash (-) response means no test result.
# [2] = tested on: bermudagrass (Cynodon dactylon); assay: Test C postemergence
# From the text: as §1, §2
# [3] = tested on: common ragweed (Ambrosia elatior); assay: Test C postemergence
# From the text: as §1, §2
# [4] = tested on: giant foxtail (Setaria faberii); assay: Test C postemergence
# From the text: as §1, §2
# [5] = tested on: morningglory (Ipomoea hederacea); assay: Test C postemergence
# From the text: as §1, §2
# [6] = tested on: pigweed (Amaranthus retroflexus); assay: Test C postemergence
# From the text: as §1, §2
# corn (Zea mays) = assay: Test C postemergence
# From the text: as §1, §2
# [7] = tested on: Surinam grass (Brachiaria decumbens); assay: Test C postemergence
# From the text: as §1, §2
# [8] = tested on: yellow nutsedge (Cyperus esculentus); assay: Test C preemergence; settings: for Plant response rating (0 to 100), Nutsedge: Rate 250 g/ha, visual evaluation after 12 to 14 days
# Procedure, shortened: (§3)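 Pre- and postemergence treatments used a non-phytotoxic solvent/surfactant formulation; post-treated plants measured 2 to 18 cm. Greenhouse hold 12–14 d; % control estimated visually relative to controls.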
# [9] = tested on: goosegrass (Eleusine indica); assay: Test C preemergence; settings: for Plant response rating (0 to 100), Goosegrass: Rate 250 g/ha, visual evaluation after 12 to 14 days
# Procedure, shortened: as §3
# [10] = tested on: morningglory (Ipomoea hederacea); assay: Test C preemergence; settings: for Plant response rating (0 to 100), Morningglory: Rate 250 g/ha, visual evaluation after 12 to 14 days
# Procedure, shortened: as §3
# [11] = tested on: crabgrass (Digitaria sanguinalis); assay: Test C preemergence; settings: for Plant response rating (0 to 100), Crabgrass: Rate 250 g/ha, visual evaluation after 12 to 14 days
# Procedure, shortened: as §3
# Sunflower = assay: Test C preemergence; settings: Rate 31 g/ha, scale 0 to 100
# [12] = Rate 125 g/ha, scale 0 to 100, 0 no effect, 100 complete control
# [13] = Rate 250 g/ha, scale 0 to 100 (0 no effect, 100 complete control)
# [14] = Rate 62 g/ha, scale 0 to 100, 0 no effect, 100 complete control
# [15] = preemergence, Rate 31 g/ha, scale 0 to 100
# [16] = preemergence, Rate 125 g/ha, scale 0 to 100, 0 no effect, 100 complete control
structure (smiles),measurement,setting,value
O=C1C(n2ccc(C3CCC3)n2)SCN1c1cccc(C(F)(F)F)c1 (stereo not shown) [Compound 37],"Plant response rating, Lambsquarters","[1]; Rate 31 g/ha, scale 0 to 100",20
same,"Plant response rating, Lambsquarters",[1]; [12],20
same,"Plant response rating, Lambsquarters",[1]; [13],50
same,"Plant response rating, Bermudagrass","[2]; Rate 31 g/ha, scale 0 to 100",0
same,"Plant response rating, Bermudagrass",[2]; [14],0
same,"Plant response rating, Bermudagrass",[2]; [12],0
same,"Plant response rating, Bermudagrass",[2]; [13],0
same,"Plant response rating, Ragweed, Common","[3]; Rate 31 g/ha, scale 0 to 100",0
same,"Plant response rating, Ragweed, Common",[3]; [12],0
same,"Plant response rating, Ragweed, Common",[3]; [13],0
same,"Plant response rating, Foxtail, Giant","[4]; Rate 31 g/ha, scale 0 to 100",0
same,"Plant response rating, Foxtail, Giant",[4]; [12],0
same,"Plant response rating, Foxtail, Giant",[4]; [13],0
same,"Plant response rating, Morningglory","[5]; Rate 31 g/ha, scale 0 to 100",0
same,"Plant response rating, Morningglory",[5]; [12],0
same,"Plant response rating, Morningglory",[5]; [13],0
same,"Plant response rating, Pigweed","[6]; Rate 31 g/ha, scale 0 to 100",0
same,"Plant response rating, Pigweed",[6]; [12],0
same,"Plant response rating, Pigweed",[6]; [13],0
same,"Plant response rating, Corn","corn (Zea mays); Rate 31 g/ha, scale 0 to 100",0
same,"Plant response rating, Corn",corn (Zea mays); [12],0
same,"Plant response rating, Corn",corn (Zea mays); [13],0
same,"Plant response rating, Surinam grass","[7]; Rate 31 g/ha, scale 0 to 100",0
same,"Plant response rating, Surinam grass",[7]; [12],0
same,"Plant response rating, Surinam grass",[7]; [13],0
same,"Plant response rating, Nutsedge",[8]; [14],20
same,"Plant response rating, Nutsedge",[8]; [15],0
same,"Plant response rating (0 to 100), Nutsedge",[8]; preemergence,30
same,"Plant response rating, Nutsedge",[8]; [16],20
same,"Plant response rating, Goosegrass",[9]; [14],90
same,"Plant response rating, Goosegrass",[9]; [15],60
same,"Plant response rating (0 to 100), Goosegrass",[9]; preemergence,100
same,"Plant response rating, Goosegrass",[9]; [16],90
same,"Plant response rating, Morningglory",[10]; [14],0
same,"Plant response rating, Morningglory",[10]; [15],0
same,"Plant response rating (0 to 100), Morningglory",[10]; preemergence,30
same,"Plant response rating, Morningglory",[10]; [16],0
same,"Plant response rating, Crabgrass",[11]; [14],90
same,"Plant response rating, Crabgrass",[11]; [15],80
same,"Plant response rating (0 to 100), Crabgrass",[11]; preemergence,100
same,"Plant response rating, Crabgrass",[11]; [16],90
same,"Plant response rating, Sunflower",Sunflower,0
CC(C)(C)c1ccn(C2SCN(c3cccc(OC(F)F)c3)C2=O)n1 (stereo not shown) [Compound 36],"Plant response rating, Lambsquarters","[1]; Rate 31 g/ha, scale 0 to 100",50
same,"Plant response rating, Lambsquarters",[1]; [12],70
same,"Plant response rating, Lambsquarters",[1]; [13],70
same,"Plant response rating, Bermudagrass","[2]; Rate 31 g/ha, scale 0 to 100",0
same,"Plant response rating, Bermudagrass",[2]; [14],0
same,"Plant response rating, Bermudagrass",[2]; [12],0
same,"Plant response rating, Bermudagrass",[2]; [13],70
same,"Plant response rating, Ragweed, Common","[3]; Rate 31 g/ha, scale 0 to 100",0
same,"Plant response rating, Ragweed, Common",[3]; [12],0
same,"Plant response rating, Ragweed, Common",[3]; [13],30
same,"Plant response rating, Foxtail, Giant","[4]; Rate 31 g/ha, scale 0 to 100",0
same,"Plant response rating, Foxtail, Giant",[4]; [12],0
same,"Plant response rating, Foxtail, Giant",[4]; [13],20
same,"Plant response rating, Morningglory","[5]; Rate 31 g/ha, scale 0 to 100",0
same,"Plant response rating, Morningglory",[5]; [12],0
same,"Plant response rating, Morningglory",[5]; [13],20
same,"Plant response rating, Pigweed","[6]; Rate 31 g/ha, scale 0 to 100",30
same,"Plant response rating, Pigweed",[6]; [12],60
same,"Plant response rating, Pigweed",[6]; [13],60
same,"Plant response rating, Corn","corn (Zea mays); Rate 31 g/ha, scale 0 to 100",0
same,"Plant response rating, Corn",corn (Zea mays); [12],0
same,"Plant response rating, Corn",corn (Zea mays); [13],20
same,"Plant response rating, Surinam grass","[7]; Rate 31 g/ha, scale 0 to 100",0
same,"Plant response rating, Surinam grass",[7]; [14],0
same,"Plant response rating, Surinam grass",[7]; [12],0
same,"Plant response rating, Surinam grass",[7]; [13],0
same,"Plant response rating, Nutsedge",[8]; [14],0
same,"Plant response rating, Nutsedge",[8]; [15],0
same,"Plant response rating (0 to 100), Nutsedge",[8]; preemergence,30
same,"Plant response rating, Nutsedge",[8]; [16],30
same,"Plant response rating, Goosegrass",[9]; [14],100
same,"Plant response rating, Goosegrass",[9]; [15],90
same,"Plant response rating (0 to 100), Goosegrass",[9]; preemergence,100
same,"Plant response rating, Goosegrass",[9]; [16],100
same,"Plant response rating, Morningglory",[10]; [14],0
same,"Plant response rating, Morningglory",[10]; [15],0
same,"Plant response rating (0 to 100), Morningglory",[10]; preemergence,50
same,"Plant response rating, Morningglory",[10]; [16],0
same,"Plant response rating, Crabgrass",[11]; [14],100
same,"Plant response rating, Crabgrass",[11]; [15],90
same,"Plant response rating (0 to 100), Crabgrass",[11]; preemergence,100
same,"Plant response rating, Crabgrass",[11]; [16],100
same,"Plant response rating, Sunflower",Sunflower,0
